Measured values taken from US20100261679A1 (priority 2007, published 2010).

Experiments:
[1] = target: T1, cytoplasmic domain of the human CSF-1R (Homo sapiens, UniProt P07333); assay: In vitro kinase assay for CSF-1R (AlphaScreen); format: biochemical; conditions: tested at about 1 μM
T1 construct: Recombinant protein corresponding to the cytoplasmic domain of the human CSF-1R; purchased Invitrogen Corporation, Carlsbad, Calif; U.S.A. PV3249
T1 sequence (P07333 539-972 limits assumed): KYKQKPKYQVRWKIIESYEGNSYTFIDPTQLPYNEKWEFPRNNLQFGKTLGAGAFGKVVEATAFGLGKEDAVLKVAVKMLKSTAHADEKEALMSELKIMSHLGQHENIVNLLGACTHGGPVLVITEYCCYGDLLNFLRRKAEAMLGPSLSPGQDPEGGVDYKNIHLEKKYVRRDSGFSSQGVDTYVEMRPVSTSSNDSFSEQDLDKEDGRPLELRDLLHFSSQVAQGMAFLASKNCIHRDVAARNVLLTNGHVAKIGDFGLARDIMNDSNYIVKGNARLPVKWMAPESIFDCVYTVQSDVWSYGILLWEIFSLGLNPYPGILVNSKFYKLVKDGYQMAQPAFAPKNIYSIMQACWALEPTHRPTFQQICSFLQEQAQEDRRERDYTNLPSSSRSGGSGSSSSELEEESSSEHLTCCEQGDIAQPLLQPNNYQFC
Description: The kinase activity of various protein tyrosine kinases can be measured by providing ATP and a suitable peptide or protein tyrosine-containing substrate, and assaying the transfer of phosphate moiety to the tyrosine residue. Recombinant protein corresponding to the cytoplasmic domain of the human CSF-1R was purchased from Invitrogen Corporation, Carlsbad, Calif. U.S.A. (#PV3249). For each assay, test compounds were serially diluted, starting at 25 μM with 3 fold dilutions, in DMSO in 384 well plates then mixed with an appropriate kinase reaction buffer consisting of 50 mM Hepes, 5 mM MgCl2, 10 mM MnCl2, 0.1% BSA, pH 7.5, 1.0 mM dithiothreitol, 0.01% Tween 80 plus […]. Kinase protein and an appropriate biotinylated peptide substrate at 50 nM were added to give a final volume of 20 μL, reactions were incubated for 2 hours at room temperature and stopped by the addition of 10 μL of 45 mM EDTA, 50 mM Hepes pH 7.5. Added to the stopped reaction mix was 30 μL of PT66 Alphascreen beads (Perkin Elmer, Boston, Mass., U.S.A.). The reaction was incubated overnight and read on the Envision (Perkin Elmer). Phosphorylated peptide product was measured with the AlphaScreen system (Perkin Elmer) using acceptor beads coated with anti-phosphotyrosine antibody PT66 and donor beads coated with streptavidin that emit a fluorescent signal at the 520-620 nm emission wave length if in close proximity. The concentration of each compound for 50% inhibition (IC50) was calculated by non-linear regression using XL Fit data analysis software.
CSF-1R kinase was assayed in 50 mM Hepes pH 7.0, 5 mM MgCl2, 10 mM MnCl2, 1 mM DTT, 1 mg/mL BSA, 1.0 μM ATP, and 0.05 μM biotin-GGGGRPRAATF-NH2 (SEQ ID NO:2) peptide substrate. CSF-1R kinase was added at final concentration of 4 nM.

cKIT = target: T2, cKIT (Homo sapiens, UniProt P10721); assay: Inhibition of cKIT kinase in an in vitro biochemical assay (alphascreen); conditions: tested at about 1 μM
T2 construct: The kinase domain of cKIT was assayed in 50 mM Hepes; purchased Upstate 14-559
T2 sequence (P10721 589-937 limits assumed): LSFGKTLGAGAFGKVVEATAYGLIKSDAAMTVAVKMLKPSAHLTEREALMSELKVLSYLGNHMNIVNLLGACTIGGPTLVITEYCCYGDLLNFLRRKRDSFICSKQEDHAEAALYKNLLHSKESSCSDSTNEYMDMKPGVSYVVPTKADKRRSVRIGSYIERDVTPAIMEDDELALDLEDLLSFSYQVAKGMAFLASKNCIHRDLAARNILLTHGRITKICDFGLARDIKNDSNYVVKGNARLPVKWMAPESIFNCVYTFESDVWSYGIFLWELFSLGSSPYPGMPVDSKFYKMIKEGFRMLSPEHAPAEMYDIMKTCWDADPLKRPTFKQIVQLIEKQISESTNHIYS
Description: (§1) The IC50 values for the inhibition of RTKs were determined in the alphascreen format measuring the inhibition by compound of phosphate transfer to a substrate by the respective enzyme. Briefly, the respective RTK domain purchased as human recombinant protein (cKIT Upstate #14-559, PDGFRb Invitrogen #P3082) were incubated with serial dilutions of compound in the presence of substrate and ATP concentrations within 3 times the Km of the enzyme.
(§2) The kinase domain of cKIT was assayed in 50 mM Hepes, pH=7.5, 5 mM MgCl2, 10 mM MnCl2, 1 mM DTT, 0.1% BSA with 0.06 uM biotinylated peptide substrate (GGLFDDPSYVNVQNL-NH2) and 15 μM ATP (ATP KM apparent =15 μM). The kinase domain of PDGFRβ was assayed in 50 mM Hepes, pH=7.5, 20 mM MgCl2, 1 mM DTT, 0.1% BSA with 0.1 μM biotinylated peptide substrate (GGLFDDPSYVNVQNL-NH2) and 10 μM ATP (ATP KM apparent=25 μM). Reactions were incubated at room temperature for 3 to 4 hr and stopped with buffer (20 mM EDTA, 0.01% Tween-20 for both PDGFRβ and cKIT). Alphascreen PY20 beads were added to the stopped cKIT reactions and PY20 Ab/Protein A Alphascreen beads were added to the PDGFRβ stopped reactions. Both reactions were incubated overnight and read on the Alphascreen reader. The concentration of compound for 50% inhibition (IC50) was calculated employing non-linear regression using XL-Fit data analysis software. As a control compound, staurosporine is run in every assay and a Z′>0.5 is required to validate results.

PDGFRb = target: T3, PDGFRb (Homo sapiens, UniProt P09619); assay: Inhibition of PDGFRb kinase in an in vitro biochemical assay (alphascreen); conditions: tested at about 1 μM; read-out: PDGFR % inhibition at 1 μM
T3 construct: The kinase domain of PDGFRβ was assayed in 50 mM Hepes; purchased Invitrogen P3082
T3 sequence (P09619 600-962 limits assumed): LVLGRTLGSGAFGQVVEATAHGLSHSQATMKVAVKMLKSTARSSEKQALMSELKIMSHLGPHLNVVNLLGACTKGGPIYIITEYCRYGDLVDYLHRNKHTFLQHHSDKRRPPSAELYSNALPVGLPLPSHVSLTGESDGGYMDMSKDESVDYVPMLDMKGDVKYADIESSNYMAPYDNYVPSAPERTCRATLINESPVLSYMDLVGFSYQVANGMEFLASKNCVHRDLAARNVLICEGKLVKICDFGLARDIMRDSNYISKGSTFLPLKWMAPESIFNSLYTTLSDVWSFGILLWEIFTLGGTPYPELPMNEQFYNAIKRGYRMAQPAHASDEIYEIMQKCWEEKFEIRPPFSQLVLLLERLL
Description: as §1, §2

| SMILES | inhibition at 1 µM [1] [%] | inhibition at 1 µM (cKIT) [%] | inhibition at 1 µM (PDGFRb) [%] |
| --- | --- | --- | --- |
| CNC(=O)c1cc(Oc2ccc3nc(Nc4cccc5c4OCCO5)ncc3c2)ccn1 [Example 40, 4-(2-(2,3-dihydrobenzo[b][1,4]dioxin-5-ylamino)quinazolin-6-yloxy)-N-methylpicolinamide] | 100 | 13 | < 1 |
| CNC(=O)c1cc(Oc2ccc3nc(NCc4ccccc4N4CCOCC4)ncc3c2)ccn1 [Example 41, N-methyl-4-(2-(2-morpholinobenzylamino)quinazolin-6-yloxy)picolinamide] | 100 | 6 | 92 |
| CNC(=O)c1cc(Oc2ccc3nc(NCc4cccc5c4OCCO5)ncc3c2)ccn1 [Example 42, 4-(2-((2,3-dihydrobenzo[b][1,4]dioxin-5-yl)methylamino)quinazolin-6-yloxy)-N-methylpicolinamide] | 100 | 99 | 66 |
| CNC(=O)c1cc(Oc2ccc3nc(NCc4ccc5c(c4)OCCO5)ncc3c2)ccn1 [Example 43, 4-(2-((2,3-dihydrobenzo[b][1,4]dioxin-6-yl)methylamino)quinazolin-6-yloxy)-N-methylpicolinamide] | 98 | 24 | < 1 |
| CNC(=O)c1cc(Oc2ccc3nc(Nc4ccccc4OC)ncc3c2)ccn1 [Example 44, 4-(2-(2-methoxyphenylamino)quinazolin-6-yloxy)-N-methylpicolinamide] | 99 | 44 | 3 |
| CCOc1ccccc1Nc1ncc2cc(Oc3ccnc(C(=O)NC)c3)ccc2n1 [Example 45, 4-(2-(2-ethoxyphenylamino)quinazolin-6-yloxy)-N-methylpicolinamide] | 99 | 38 | 12 |
| CNC(=O)c1cc(Oc2ccc3nc(Nc4ccccc4OC(C)C)ncc3c2)ccn1 [Example 46, 4-(2-(2-isopropoxyphenylamino)quinazolin-6-yloxy)-N-methylpicolinamide] | 100 | 27 | 17 |
| CNC(=O)c1cc(Oc2ccc3nc(NC(C)c4nccs4)ncc3c2)ccn1 (stereo not drawn) [Example 48, N-methyl-4-(2-(1-(thiazol-2-yl)ethylamino)quinazolin-6-yloxy)picolinamide] | 98 | 18 | 15 |
| CCCNc1ncc2cc(Oc3ccnc(C(=O)NC)c3)ccc2n1 [Example 52, N-methyl-4-(2-(propylamino)quinazolin-6-yloxy)picolinamide] | 52 | 7 | 9 |
| CNC(=O)c1cc(Oc2ccc3nc(NCC4CC4)ncc3c2)ccn1 [Example 53, 4-(2-(cyclopropylmethylamino)quinazolin-6-yloxy)-N-methylpicolinamide] | 83 | < 1 | 9 |
| CNC(=O)c1cc(Oc2ccc3nc(Nc4ccccc4N4CCN(C)CC4)ncc3c2)ccn1 [Example 54, N-methyl-4-(2-(2-(4-methylpiperazin-1-yl)phenylamino)quinazolin-6-yloxy)picolinamide] | 65 | 47 | 20 |
| CNC(=O)c1cc(Oc2ccc3nc(OCC4CCCCC4)ncc3c2)ccn1 [Example 55, 4-(2-(cyclohexylmethoxy)quinazolin-6-yloxy)-N-methylpicolinamide] | 99 | 42 | 6 |
| CCOC(=O)N1CCC(Nc2ncc3cc(Oc4ccnc(C(=O)NC)c4)ccc3n2)CC1 [Example 56, ethyl 4-(6-(2-(methylcarbamoyl)pyridin-4-yloxy)quinazolin-2-ylamino)piperidine-1-carboxylate] | 84 | 17 | < 1 |
| CNC(=O)c1cc(Oc2ccc3nc(NC4CCN(C(=O)OC(C)(C)C)CC4)ncc3c2)ccn1 [Example 57, tert-butyl 4-(6-(2-(methylcarbamoyl)pyridin-4-yloxy)quinazolin-2-ylamino)piperidine-1-carboxylate] | 93 | 12 | 2 |
| CNC(=O)c1cc(Oc2ccc3nc(NC4CCOCC4)ncc3c2)ccn1 [Example 58, N-methyl-4-(2-(tetrahydro-2H-pyran-4-ylamino)quinazolin-6-yloxy)picolinamide] | 65 | 8 | < 1 |
| CNC(=O)c1cc(Oc2ccc3nc(NC(=O)C4CCCCC4)ncc3c2)ccn1 [Example 59, 4-(2-(cyclohexanecarboxamido)quinazolin-6-yloxy)-N-methylpicolinamide] | 99 | 13 | 13 |
| CNC(=O)c1cc(Oc2ccc3nc(NC(=O)NC4CCCCC4)ncc3c2)ccn1 [Example 60, 4-(2-(3-cyclohexylureido)quinazolin-6-yloxy)-N-methylpicolinamide] | 97 | 17 | 12 |
| CNC(=O)c1cc(Oc2ccc3nc(NCC(C)(C)N4CCOCC4)ncc3c2)ccn1 [Example 61, N-methyl-4-(2-(2-methyl-2-morpholinopropylamino)quinazolin-6-yloxy)picolinamide] | 93 | 12 | < 1 |
| CNC(=O)c1cc(Oc2ccc3nc(N[C@@H](C)c4ccccc4)ncc3c2)ccn1 [Example 64, (S)-N-methyl-4-(2-(1-phenylethylamino)quinazolin-6-yloxy)picolinamide] | 99 | 16 | 7 |
| CNC(=O)c1cc(Oc2ccc3nc(NC4CCCC4)ncc3c2)ccn1 [Example 66, 4-(2-(cyclopentylamino)quinazolin-6-yloxy)-N-methylpicolinamide] | 96 | 13 | < 1 |
| CNC(=O)c1cc(Oc2ccc3nc(Nc4ccccc4CN4CCOCC4)ncc3c2)ccn1 [Example 67, N-methyl-4-(2-(2-(morpholinomethyl)phenylamino)quinazolin-6-yloxy)picolinamide] | 96 | 13 | < 1 |
| CNC(=O)c1cc(Oc2ccc3nc(Nc4cccc5c4OC(F)(F)O5)ncc3c2)ccn1 [Example 68, 4-(2-(2,2-difluorobenzo[d][1,3]dioxol-4-ylamino)quinazolin-6-yloxy)-N-methylpicolinamide] | 98 | 10 | 2 |
